Test results reported in patent US20090104157A1, “UTILIZATION OF BACTERIOPHAGE TO CONTROL BACTERIAL CONTAMINATION IN FERMENTATION PROCESSES” (E. I. du Pont de Nemours and Company, priority 2007, published 2009).

Key:
L. plantarum ATCC 8014 = test: Growth of L. plantarum in MRS broth by optical density (Example 1); format: cell-based, Lactobacillus plantarum; details: 1 ppm, after 40 hours of incubation
Source text: Lactobacillus plantarum is a bacterium commonly isolated from contaminated fuel ethanol fermentation. In this example, a spectrophotometer was used to quantify the growth of L. plantarum in laboratory media. The use of a spectrophotometer allowed rapid determination of bacterial levels by optical density. The optical density indicates the amount of light (at a wavelength of 450 nm) absorbed by a sample. High levels of bacterial growth in a sample well result in higher optical density.
L. plantarum ATCC 8014 was cultured overnight in MRS broth (available from Difco, Sparks, Md.) at 30° C. Stocks of L. plantarum ATCC 8014 bacteriophage (bacteriophage cocktail is referred to in the Examples as “B-8014”) were prepared and titered using the overlay method (Adams, M. H. The Bacteriophages, Interscience Publishers, New York, 1959) with MRS agar. Since bacteriophage (phage) are viruses, they are unable to replicate outside of their bacterial host. Therefore, to enumerate phage, cultures of host bacteria were prepared and mixed with dilutions of phage. These mixtures were placed onto a petri dish containing agar and incubated overnight. The presence of clear zones on “lawns” of bacteria indicated phage infection. These clear zones are known as “plaques” and therefore, phage levels are commonly referred to as plaque forming units per milliliter (PFU/ml). […]

[1] = test system: Lactobacillus plantarum ATCC 8014 in corn mash; test: Level of L. plantarum in inoculated corn mash by plating on MRS agar (Example 2); format: cell-based; details: 3 ppm
Procedure: Samples of corn mash were collected from a commercial fuel ethanol plant. The corn mash was collected immediately after liquefaction, prior to entry into fermentation. Corn mash samples were frozen upon arrival and defrosted for use in experiments. Lactobacillus plantarum ATCC 8014 was cultured overnight in MRS broth (Difco, Sparks, Md.). Samples of corn mash were inoculated with L. plantarum at approximately 10^4 CFU/ml. This level of bacterial contamination is common in fuel ethanol plants. L. plantarum bacteriophage (B-8014) were prepared and titered using the overlay method on MRS agar (as described in Example 1). One sample of corn mash received no treatment. A second sample was treated by the addition of 3 parts per million (ppm) of Penicillin G. Three additional samples were treated with phage at a bacteria to phage ratio of 1:1, 1:10, and 1:100. All mash samples were incubated at 33° C., the temperature at which commercial fermentation takes place. The level of bacteria remaining in the test samples was determined by decimal dilutions in phosphate-buffered saline followed by plating of these dilutions onto plates of MRS agar. Plates were incubated overnight at 33° C. and colonies were enumerated.

CC1(C)S[C@@H]2[C@H](NC(=O)Cc3ccccc3)C(=O)N2[C@H]1C(=O)O [Penicillin G]
optical density at 450 nm compared with control wells (L. plantarum ATCC 8014): higher | reduction of growth of L. plantarum (L. plantarum ATCC 8014): not effective | effect on growth of L. plantarum [1]: did not affect or control growth | Log CFU/ml at 0 hours ([1]; 33° C.): 4.86 Log CFU/ml | Log CFU/ml at 24 hours ([1]; 33° C.): 9.09 Log CFU/ml | Log CFU/ml at 40 hours ([1]; 33° C.): 9.19 Log CFU/ml
